Results: ChEMBL document CHEMBL5346903, “Discovery of novel and bioavailable histone deacetylases and cyclin-dependent kinases dual inhibitor to impair the stemness of leukemia cells” (Eur J Med Chem, 2023)
One block for each compound: values may come before it.

Tests used:
Kasumi 1 = assay: Antiproliferative activity against human Kasumi 1 cells incubated for 72 hrs by CCK8 assay; type: functional, cell-based; conditions: Kasumi 1, 72 h
HL-60 [1] = assay: Induction of apoptosis in human HL-60 cells assessed as late apoptotic cells at 0.5 uM incubated for 48 hrs by annexin V-FITC/PI satining based flow cytometry (reference value: 1.33 %); type: functional
HL-60 [2] = assay: Induction of apoptosis in human HL-60 cells assessed as late apoptotic cells at 0.2 uM incubated for 48 hrs by annexin V-FITC/PI satining based flow cytometry (reference value: 1.33 %); type: functional
HL-60 [3] = assay: Induction of apoptosis in human HL-60 cells assessed as necrotic cells at 0.2 uM incubated for 48 hrs by annexin V-FITC/PI satining based flow cytometry (reference value: 0.00 %); type: functional
[4] = Cmax in Sprague-Dawley rat at 25 mg/kg, po measured upto 8 hrs by LC/MS-MS analysis; type: ADME, organism-based; set-up: time < 8 hrs, dose 25 mg/kg, route po; conditions: in vivo
U-937 [5] = assay: Induction of differentiation in human U-937 cells assessed as increase in CD11b positive cells at 1 uM incubated for 48 hrs by FITC staining based flow cytometry (reference value: 2.72 %); type: functional
[6] = Tmax in Sprague-Dawley rat at 25 mg/kg, po measured upto 8 hrs by LC/MS-MS analysis; type: ADME, organism-based; conditions: in vivo
U-937 [7] = assay: Induction of apoptosis in human U-937 cells assessed as viable cells at 1 uM incubated for 48 hrs by annexin V-FITC/PI satining based flow cytometry (reference value: 90.0 %); type: functional; conditions: read-out: Activity
Histone deacetylase 9 = Histone deacetylase 9 (Homo sapiens, UniProt Q9UKV0); assay: Inhibition of recombinant human HDAC9 using HDAC substrate incubated for 30 mins by fluorescence based assay
Histone deacetylase 9, sequence (Q9UKV0 whole entry): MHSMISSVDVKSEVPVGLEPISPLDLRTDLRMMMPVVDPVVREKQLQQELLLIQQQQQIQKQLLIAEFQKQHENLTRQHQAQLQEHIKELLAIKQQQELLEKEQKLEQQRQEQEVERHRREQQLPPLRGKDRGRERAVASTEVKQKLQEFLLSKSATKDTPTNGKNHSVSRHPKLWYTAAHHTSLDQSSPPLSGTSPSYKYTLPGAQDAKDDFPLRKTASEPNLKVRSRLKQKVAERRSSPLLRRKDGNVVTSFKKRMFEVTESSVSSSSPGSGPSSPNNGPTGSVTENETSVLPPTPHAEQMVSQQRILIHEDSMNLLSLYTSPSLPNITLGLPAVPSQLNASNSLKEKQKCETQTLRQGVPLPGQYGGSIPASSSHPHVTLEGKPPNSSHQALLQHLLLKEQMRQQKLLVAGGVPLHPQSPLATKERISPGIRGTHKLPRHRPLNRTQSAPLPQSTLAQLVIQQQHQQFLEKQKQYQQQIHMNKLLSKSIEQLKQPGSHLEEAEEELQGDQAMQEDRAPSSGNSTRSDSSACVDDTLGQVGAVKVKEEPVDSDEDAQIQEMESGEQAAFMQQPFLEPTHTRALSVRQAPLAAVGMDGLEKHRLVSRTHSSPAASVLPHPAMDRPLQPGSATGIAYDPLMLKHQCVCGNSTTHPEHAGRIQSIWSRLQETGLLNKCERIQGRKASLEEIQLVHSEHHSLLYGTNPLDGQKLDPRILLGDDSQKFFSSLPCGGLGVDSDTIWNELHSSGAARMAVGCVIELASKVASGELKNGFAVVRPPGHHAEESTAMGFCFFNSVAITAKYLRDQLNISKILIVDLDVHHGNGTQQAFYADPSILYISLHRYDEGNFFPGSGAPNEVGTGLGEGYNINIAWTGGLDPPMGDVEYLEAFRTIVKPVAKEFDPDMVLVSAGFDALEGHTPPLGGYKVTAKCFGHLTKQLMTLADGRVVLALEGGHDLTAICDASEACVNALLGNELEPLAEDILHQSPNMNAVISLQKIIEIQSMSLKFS

HL-60 [8] = assay: Induction of apoptosis in human HL-60 cells assessed as late apoptotic cells at 1 uM incubated for 48 hrs by annexin V-FITC/PI satining based flow cytometry (reference value: 1.33 %); type: functional
U-937 [9] = assay: Induction of apoptosis in human U-937 cells assessed as late apoptotic cells at 2 uM incubated for 48 hrs by annexin V-FITC/PI satining based flow cytometry (reference value: 7.10 %); type: functional
HL-60 [10] = assay: Induction of differentiation in human HL-60 cells assessed as increase in CD11b positive cells at 2 uM incubated for 24 hrs by FITC staining based flow cytometry (reference value: 1.45 %); type: functional
U-937 [11] = assay: Antiproliferative activity against human U-937 cells incubated for 72 hrs by CCK8 assay; type: functional, cell-based; conditions: U-937, 72 h
U-937 [12] = assay: Induction of apoptosis in human U-937 cells assessed as viable cells at 2 uM incubated for 48 hrs by annexin V-FITC/PI satining based flow cytometry (reference value: 90.0 %); type: functional; conditions: read-out: Activity
Histone deacetylase 5 = Histone deacetylase 5 (Homo sapiens, UniProt Q9UQL6); assay: Inhibition of recombinant human HDAC5 using HDAC substrate incubated for 30 mins by fluorescence based assay
[13] = MRT in Sprague-Dawley rat at 25 mg/kg, po measured upto 8 hrs by LC/MS-MS analysis; type: ADME, organism-based; conditions: in vivo
[14] = target: CDK12/Cyclin K (Homo sapiens) (UniProt O75909+Q9NYV4); assay: Inhibition of CDK12/cyclinK (unknown origin) at 100 nM preincubated for 20 mins followed by [gamma-33P]ATP addition measured after 120 mins in presence of ATP by Hot-SpotSM kinase assay relative to control; type: protein-complex assay; conditions: time 140.0 min
CDK12/Cyclin K (Homo sapiens), sequence (O75909 whole entry, looked up): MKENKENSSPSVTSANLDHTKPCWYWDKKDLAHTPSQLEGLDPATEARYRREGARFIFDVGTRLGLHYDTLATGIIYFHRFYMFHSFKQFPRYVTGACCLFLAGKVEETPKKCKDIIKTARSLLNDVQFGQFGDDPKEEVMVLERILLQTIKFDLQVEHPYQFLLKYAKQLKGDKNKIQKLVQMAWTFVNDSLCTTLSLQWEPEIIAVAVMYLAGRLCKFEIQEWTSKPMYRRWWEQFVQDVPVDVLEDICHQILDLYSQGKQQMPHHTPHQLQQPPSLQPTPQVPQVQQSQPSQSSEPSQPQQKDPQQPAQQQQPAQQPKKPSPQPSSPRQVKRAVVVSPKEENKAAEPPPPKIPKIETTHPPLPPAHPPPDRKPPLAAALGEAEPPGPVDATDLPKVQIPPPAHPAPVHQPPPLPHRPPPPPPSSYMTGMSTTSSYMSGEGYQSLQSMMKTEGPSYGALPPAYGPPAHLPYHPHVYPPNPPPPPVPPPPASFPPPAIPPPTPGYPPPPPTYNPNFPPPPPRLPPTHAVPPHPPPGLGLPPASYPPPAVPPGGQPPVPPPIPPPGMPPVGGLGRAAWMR
CDK12/Cyclin K (Homo sapiens), sequence (Q9NYV4 whole entry, looked up): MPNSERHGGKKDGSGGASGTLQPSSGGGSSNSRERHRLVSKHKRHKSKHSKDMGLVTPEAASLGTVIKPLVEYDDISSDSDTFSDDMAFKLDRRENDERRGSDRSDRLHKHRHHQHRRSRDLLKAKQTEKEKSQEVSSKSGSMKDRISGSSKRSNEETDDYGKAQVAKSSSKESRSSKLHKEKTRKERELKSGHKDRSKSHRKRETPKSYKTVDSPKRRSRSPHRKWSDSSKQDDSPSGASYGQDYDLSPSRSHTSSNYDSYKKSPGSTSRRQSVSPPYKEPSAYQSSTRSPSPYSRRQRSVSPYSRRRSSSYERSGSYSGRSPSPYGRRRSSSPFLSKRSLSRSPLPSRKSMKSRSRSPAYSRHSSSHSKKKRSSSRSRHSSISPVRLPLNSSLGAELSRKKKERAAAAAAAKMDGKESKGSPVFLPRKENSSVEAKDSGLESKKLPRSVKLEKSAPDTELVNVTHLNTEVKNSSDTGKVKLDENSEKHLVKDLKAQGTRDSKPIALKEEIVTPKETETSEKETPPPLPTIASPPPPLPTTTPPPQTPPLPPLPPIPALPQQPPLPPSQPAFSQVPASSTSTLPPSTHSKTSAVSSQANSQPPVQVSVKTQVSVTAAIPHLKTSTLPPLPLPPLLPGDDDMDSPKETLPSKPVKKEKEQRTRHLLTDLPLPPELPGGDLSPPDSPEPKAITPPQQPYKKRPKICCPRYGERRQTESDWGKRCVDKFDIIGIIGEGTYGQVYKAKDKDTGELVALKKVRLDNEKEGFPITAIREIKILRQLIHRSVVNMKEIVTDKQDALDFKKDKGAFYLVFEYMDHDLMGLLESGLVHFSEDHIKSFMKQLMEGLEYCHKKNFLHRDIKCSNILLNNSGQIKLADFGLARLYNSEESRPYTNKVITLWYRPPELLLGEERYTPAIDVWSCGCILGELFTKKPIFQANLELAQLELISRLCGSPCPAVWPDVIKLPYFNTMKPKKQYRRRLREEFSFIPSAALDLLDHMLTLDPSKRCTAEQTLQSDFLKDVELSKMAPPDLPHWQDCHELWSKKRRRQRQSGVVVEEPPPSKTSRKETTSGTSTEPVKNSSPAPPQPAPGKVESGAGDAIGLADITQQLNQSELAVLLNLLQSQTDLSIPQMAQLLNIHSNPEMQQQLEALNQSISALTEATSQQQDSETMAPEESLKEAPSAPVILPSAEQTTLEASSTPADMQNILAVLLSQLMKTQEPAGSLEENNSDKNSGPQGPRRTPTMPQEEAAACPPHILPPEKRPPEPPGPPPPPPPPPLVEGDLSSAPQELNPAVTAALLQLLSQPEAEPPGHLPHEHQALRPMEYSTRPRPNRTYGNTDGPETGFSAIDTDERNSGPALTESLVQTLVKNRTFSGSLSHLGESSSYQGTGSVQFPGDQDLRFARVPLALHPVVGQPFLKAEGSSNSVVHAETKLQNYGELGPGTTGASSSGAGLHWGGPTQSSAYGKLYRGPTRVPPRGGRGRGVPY

HL-60 [15] = assay: Inhibition of colony formation in human HL-60 cells treated for 15 days by soft agar assay; type: functional, cell-based; conditions: time 15.0 day
U-937 [16] = assay: Inhibition of colony formation in human U-937 cells treated for 15 days by soft agar assay; type: functional, cell-based; conditions: time 15.0 day
HL-60 [17] = assay: Induction of apoptosis in human HL-60 cells assessed as necrotic cells at 1 uM incubated for 48 hrs by annexin V-FITC/PI satining based flow cytometry (reference value: 0.00 %); type: functional
HL-60 [18] = assay: Downregulation of Pol-II S2 level in human HL-60 cells incubated for 6 hrs by Western blot analysis; type: functional, cell-based; conditions: dose <= 1000.0 nM
[19] = target: Cyclin-dependent kinase 5/CDK5 activator 1 (Homo sapiens) (UniProt Q00535+Q15078); assay: Inhibition of CDK5/p25NCK (unknown origin) at 100 nM preincubated for 20 mins followed by [gamma-33P]ATP addition measured after 120 mins in presence of ATP by Hot-SpotSM kinase assay relative to control; type: protein-complex assay; conditions: time 140.0 min
Cyclin-dependent kinase 5/CDK5 activator 1 (Homo sapiens), sequence (Q00535 whole entry): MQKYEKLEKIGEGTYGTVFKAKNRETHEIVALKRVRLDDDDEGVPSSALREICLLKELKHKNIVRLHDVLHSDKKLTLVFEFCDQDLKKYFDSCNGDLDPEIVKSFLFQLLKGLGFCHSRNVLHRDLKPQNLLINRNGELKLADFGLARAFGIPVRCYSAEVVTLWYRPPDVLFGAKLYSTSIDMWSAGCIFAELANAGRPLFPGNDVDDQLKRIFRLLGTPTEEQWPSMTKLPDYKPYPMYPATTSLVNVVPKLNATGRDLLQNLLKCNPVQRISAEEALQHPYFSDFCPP
Cyclin-dependent kinase 5/CDK5 activator 1 (Homo sapiens), sequence (Q15078 99-307 partner limits assumed): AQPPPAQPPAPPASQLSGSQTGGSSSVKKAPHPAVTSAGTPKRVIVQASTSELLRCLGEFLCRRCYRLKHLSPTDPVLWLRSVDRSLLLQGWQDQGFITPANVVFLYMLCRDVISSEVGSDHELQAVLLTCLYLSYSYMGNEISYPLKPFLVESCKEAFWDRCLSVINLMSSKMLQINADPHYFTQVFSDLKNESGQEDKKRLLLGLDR

HL-60 [20] = assay: Induction of apoptosis in human HL-60 cells assessed as viable cells at 2 uM incubated for 48 hrs by annexin V-FITC/PI satining based flow cytometry (reference value: 97.4 %); type: functional; conditions: read-out: Activity
[21] = target: Protein deacetylase HDAC6 (Homo sapiens, UniProt Q9UBN7); assay: Inhibition of recombinant human HDAC6 using HDAC substrate incubated for 30 mins by fluorescence based assay
Protein deacetylase HDAC6, sequence (Q9UBN7 whole entry): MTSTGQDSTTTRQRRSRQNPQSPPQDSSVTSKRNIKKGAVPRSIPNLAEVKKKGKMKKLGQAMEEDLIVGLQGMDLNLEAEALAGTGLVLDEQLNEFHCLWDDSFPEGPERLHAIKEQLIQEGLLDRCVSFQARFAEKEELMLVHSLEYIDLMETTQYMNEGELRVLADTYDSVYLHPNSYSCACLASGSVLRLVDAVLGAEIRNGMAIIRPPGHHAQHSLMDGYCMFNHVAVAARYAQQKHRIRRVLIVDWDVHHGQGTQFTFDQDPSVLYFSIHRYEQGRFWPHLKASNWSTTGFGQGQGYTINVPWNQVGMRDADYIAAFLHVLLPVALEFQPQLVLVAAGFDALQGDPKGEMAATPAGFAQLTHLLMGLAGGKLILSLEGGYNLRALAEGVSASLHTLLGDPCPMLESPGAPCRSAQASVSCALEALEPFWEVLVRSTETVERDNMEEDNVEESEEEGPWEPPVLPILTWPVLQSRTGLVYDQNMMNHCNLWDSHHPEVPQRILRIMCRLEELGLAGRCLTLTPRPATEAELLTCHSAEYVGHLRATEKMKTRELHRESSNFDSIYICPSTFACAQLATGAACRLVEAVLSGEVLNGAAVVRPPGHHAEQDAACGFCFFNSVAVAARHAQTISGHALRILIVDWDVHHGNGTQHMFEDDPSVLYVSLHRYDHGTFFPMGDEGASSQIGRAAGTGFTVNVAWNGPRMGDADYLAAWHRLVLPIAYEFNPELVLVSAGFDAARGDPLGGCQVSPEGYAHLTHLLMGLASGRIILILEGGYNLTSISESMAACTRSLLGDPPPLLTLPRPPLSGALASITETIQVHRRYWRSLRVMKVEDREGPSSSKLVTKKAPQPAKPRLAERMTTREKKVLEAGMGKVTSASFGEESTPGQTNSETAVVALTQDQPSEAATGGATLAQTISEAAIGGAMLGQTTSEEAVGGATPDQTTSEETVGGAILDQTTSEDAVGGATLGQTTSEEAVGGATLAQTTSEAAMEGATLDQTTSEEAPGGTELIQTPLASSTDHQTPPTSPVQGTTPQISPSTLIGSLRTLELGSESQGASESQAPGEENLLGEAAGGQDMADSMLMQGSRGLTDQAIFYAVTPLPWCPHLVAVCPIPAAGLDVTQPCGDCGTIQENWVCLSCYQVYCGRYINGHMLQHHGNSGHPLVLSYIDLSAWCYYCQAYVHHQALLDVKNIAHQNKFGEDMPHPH

[22] = Antiproliferative activity against human SKNO-1 cells incubated for 72 hrs by CCK8 assay; type: functional, cell-based; conditions: SKNO-1, 72 h
HL-60 [23] = assay: Induction of apoptosis in human HL-60 cells assessed as early apoptotic cells at 2 uM incubated for 48 hrs by annexin V-FITC/PI satining based flow cytometry (reference value: 1.24 %); type: functional
HL-60 [24] = assay: Antiproliferative activity against human HL-60 cells incubated for 72 hrs by CCK8 assay; type: functional, cell-based; conditions: HL-60, 72 h
HL-60 [25] = assay: Induction of differentiation in human HL-60 cells assessed as increase in CD11b positive cells at 2.5 uM incubated for 24 hrs by FITC staining based flow cytometry (reference value: 1.12 %); type: functional
HL-60 [26] = assay: Induction of apoptosis in human HL-60 cells assessed as late apoptotic cells at 5 uM incubated for 48 hrs by annexin V-FITC/PI satining based flow cytometry (reference value: 2.83 %); type: functional
HL-60 [27] = assay: Induction of apoptosis in human HL-60 cells assessed as early apoptotic cells at 1.2 uM incubated for 48 hrs by annexin V-FITC/PI satining based flow cytometry (reference value: 2.4 %); type: functional
U-937 [28] = assay: Induction of apoptosis in human U-937 cells assessed as necrotic cells at 1.2 uM incubated for 48 hrs by annexin V-FITC/PI satining based flow cytometry (reference value: 0.102 %); type: functional
HL-60 [29] = assay: Induction of apoptosis in human HL-60 cells assessed as late apoptotic cells at 1.2 uM incubated for 48 hrs by annexin V-FITC/PI satining based flow cytometry (reference value: 2.83 %); type: functional
HL-60 [30] = assay: Induction of apoptosis in human HL-60 cells assessed as late apoptotic cells at 0.6 uM incubated for 48 hrs by annexin V-FITC/PI satining based flow cytometry (reference value: 2.83 %); type: functional
U-937 [31] = assay: Induction of apoptosis in human U-937 cells assessed as viable cells at 2.5 uM incubated for 48 hrs by annexin V-FITC/PI satining based flow cytometry (reference value: 93.7 %); type: functional; conditions: read-out: Activity
U-937 [32] = assay: Induction of differentiation in human U-937 cells assessed as increase in CD11b positive cells at 5 uM incubated for 48 hrs by FITC staining based flow cytometry (reference value: […] %); type: functional
U-937 [33] = assay: Induction of apoptosis in human U-937 cells assessed as viable cells at 5 uM incubated for 48 hrs by annexin V-FITC/PI satining based flow cytometry (reference value: 93.7 %); type: functional; conditions: read-out: Activity

Cmax [4]: 1430 ng/mL
Tmax [6]: 0.75 h
IC50 (Histone deacetylase 9): > 1000 nM
IC50 (U-937 [11]): 720 nM
IC50 (Histone deacetylase 5): > 1000 nM
MRT [13]: 1.27 h
inhibition [14]: 98.8%
inhibition [19]: 95.2%
IC50 [21]: 723 nM
IC50 (HL-60 [24]): 1430 nM
Compound: Nc1ccccc1NC(=O)c1ccc(NC(=O)c2n[nH]cc2NC(=O)c2c(Cl)cccc2Cl)cc1
IC50 (Kasumi 1): 890 nM
Activity (HL-60 [1]): 3.16%
Activity (HL-60 [2]): 1.97%
Activity (HL-60 [3]): 0.02%
Activity (U-937 [5]): 6%
viability at 1 µM (U-937 [7]): 48.9%
Activity (HL-60 [8]): 39%
Activity (U-937 [9]): 88.7%
Activity (HL-60 [10]): 62.2%
viability at 2 µM (U-937 [12]): 5.82%
inhibition (HL-60 [15]): Dose-Dependent Effect
inhibition (U-937 [16]): Dose-Dependent Effect
Activity (HL-60 [17]): 0.445%
Activity (HL-60 [18]): Dose-Dependent Effect
viability at 2 µM (HL-60 [20]): 5.25%
IC50 [22]: 1630 nM
Activity (HL-60 [23]): 35.4%

IC50 (U-937 [11]): 4660 nM
IC50 (HL-60 [24]): 3110 nM
Compound: Nc1cc(F)ccc1NC(=O)c1ccc(CNC(=O)/C=C/c2cccnc2)cc1 [TUCIDINOSTAT]
IC50 (Kasumi 1): > 10000 nM
Activity (HL-60 [25]): 53.5%
Activity (HL-60 [26]): 73.4%
Activity (HL-60 [27]): 3.72%
inhibition (HL-60 [15]): Dose-Dependent Effect
inhibition (U-937 [16]): Dose-Dependent Effect
Activity (U-937 [28]): 0.142%
Activity (HL-60 [29]): 11.5%
Activity (HL-60 [30]): 2.27%
viability at 2.5 µM (U-937 [31]): 87.5%
IC50 [22]: 5570 nM
Activity (U-937 [32]): 5.7%
viability at 5 µM (U-937 [33]): 72.6%
